Measurements taken from patent US5562922A, “Drug incorporating and release polymeric coating for bioprosthesis” (Cedars-Sinai Medical Center, priority 1995, dated 1996).
Entries after “also recorded” stand apart in the source; their conditions may differ. Blank lines part the entries; values can stand above or below the compound they belong to.

Key:
[1] = Uptake by polymer, elution from polymer and tissue retention compared with forskolin; details: compared to forskolin
[2] = Etretinate delivery to vessel wall from coated stent (similar model); details: rabbit
[3] = Water solubility (in words); assay type: physicochemical
[4] = In vitro drug release from polyurethane-coated stents, coils or films; details: for initial release rate / release rate: release from polyurethane, Table 1A; for Total: total content
Protocol: Drug incorporation into polyurethane-coated articles
Nitinol stents or stainless steel coils with surface area similar to nitinol stents were coated with Tecoflex 85A™ polyurethane to a thickness of about 50 microns in accordance with the manufacture's instructions for coating metal surfaces.
The drug loading procedure is carried out as follows: The desired compound is dissolved in a solution containing 3 parts ethanol and 1 part tetrahydrofuran (100 mg/ml for rhodamine B and 50 mg/ml for fluorescein dilaurate and forskolin).
When a hydrophilic compound such as hirulog was loaded in the polyurethane,the polyurethane was first loaded with sphingosine or any charged lipophilic molecule as described above. With this modification, the polyurethane will swell in organic solutions containing up to 10% water. The desired compound was then dissolved as 50 mg/ml in ethanol/tertrahydrofuran/water in a ratio of 65/25/1-20. The water content will vary according to the solubility of the desired compound in this solvent system.
After incubation, all stents, coils, and films were dried overnight at 40° C. at reduced pressure. To evaluate the ability of a charged lipid soluble drug to facilitate uptake and release of a water soluble compound, thin films containing 20 mg of polyurethane with or without 1 mg of sphingosine were produced by pour plating and drying overnight at 40° C. under reduced pressure. The films were then incubated in a solution of fluorescein disodium, a water soluble dye. After incubation, films were dried as described above.
After a 15 minute preincubation (wash step), stents, coils, or films were incubated for 2-3 days in 2 ml. of phosphate buffered saline (pH=7.4) or 5% bovine serum albumin in PBS at 37° C. in a shaking water bath. […] At the end of incubations, the polyurethane was dissolved in tertrahydrofuran and an aliquot analyzed to determine the quantity of compound remaining in the polymer. […] Solutions containing fluorescein dilaurate required addition of 200 μl of 10M sodium hydroxide to convert the fluorescein dilaurate into its colored form (release the two 16-carbon fatty acid dilaurate chains from the water soluble fluorescein molecule). Forskolin content was determined by scintillation counting.

[5] = design: species or system New Zealand white rabbits; details: rabbit
Protocol: (§1) For these experiments, nitinol stents were coated with Tecoflex™, to a thickness of about 50-100 microns, and then incubated in a solution containing unlabelled and tritiated forskolin with a specific activity of 25 μCi/mg. Resulting stents contained approximately 1.5 mg. of forskolin in approximately 20 mg of 50-100 micron thick polymer matrix coating.
(§2) Instantaneous blood release rates were calculated by the following formula using the conservation of mass principle: [formula] where dM=change in mass, dT=change in time, M=mass, Q=flow, C1=upstream concentration, and C2=downstream concentration. Scintillation counts were then adjusted for measured background and efficiency. The amount of forskolin present was calculated by comparison of tissue activity to a 25 uCi/mg standard. For comparison of tissue and blood forskolin concentrations, blood levels were divided by specific gravity of rabbit blood (1.050 g/ml). Statistical analysis to assess differences between the multiple sites of the tissue samples was by one-way analysis of variances (ANOVA). If significant differences were found (p<0.05), pairwise comparisons were then performed using the t-test within ANOVA corrected for multiple comparisons (Bonferoni/Least Significant Difference tests).

carotid artery [6] = test system: carotid artery; design: species or system New Zealand white rabbits; details: rabbit, in vivo
Protocol: as §1, §2

carotid artery [7] = test: Carotid artery flow after stent delivery; assay type: in vivo, New Zealand white rabbits; details: 10.3±4.2 ml/min before
Protocol: as §1

carotid artery [8] = test: Rabbit carotid crush injury, low flow thrombosis model; assay type: in vivo, New Zealand white rabbits
Excerpt: To evaluate the thrombogenicity of polyurethane stent coatings, a rabbit carotid crush injury, low flow thrombosis model was developed. Briefly, New Zealand white rabbits (n=14) underwent anesthesia with ketamine and xylazine followed by surgical exposure of the right carotid and left femoral arteries. A 6 french sheath was placed in the left femoral artery and a 2.0 mm transit time flow probe (Transonics) was placed in the distal carotid artery. No anticoagulant was given. Repeated crush injury with a plastic coated clamp was performed at similar force for fifteen times over a one cm. distance usually producing a small decrement in flow rate. After 5 minutes, a bare or polyurethane coated nitinol stent was advanced to straddle the area of injury and balloon expanded. After a 15 minute equilibration period during which a 3.0 mm balloon occluder was placed proximal to the stent, the occluder was inflated to reduce flow to 4 ml/min. (40% of baseline). Continuous pressure monitoring via pressure transducer placed on line in the occluder inflation system was performed to ensure maintenance of consistent occlusion.
Continuous carotid artery flow and mean blood pressure were recorded by strip chart recorder. If the flow remained <0.5 ml/min, for 5 minutes, the artery was considered occluded and experiment terminated. […] After euthanasia, the artery was removed and cut longitudinally with a scalpel. The polyurethane coating was visually inspected for defects. Presence of white or red thrombus was also noted.

[9] = test system: thrombosis on the catheter; details: released from intravascular catheters; cited from earlier work
intimal hyperplasia = details: polyvinyl alcohol based polymer beads, perivascular tissue, rats; cited from earlier work
[10] = Film + SPH (sphingosine), n = 2, buffer not given
[11] = Film without sphingosine, n = 2, buffer not given

Compound: CCOC(=O)/C=C(C)/C=C/C=C(C)/C=C/c1c(C)cc(OC)c(C)c1C [Etretinate]
elution rate from the polymer [1]: decreased elution rate from the polymer
tissue retention [1]: increased tissue retention
uptake by the polymer [1]: increased uptake by the polymer
concentration at 72 h ([2]; vessel wall): 185000 ng/g
concentration at 24 h ([2]; vessel wall media): 250000 ng/g

Compound: O=C1OC2(c3ccc(O)cc3Oc3cc(O)ccc32)c2ccccc21 [Fluorescein disodium, fluorescein disodium]
water solubility [3]: water soluble
Release Rate Day 1 [4, 10]: 16.0 µg/h
Release Rate Day 2 [4, 10]: 4.0 µg/h
Release Rate Day 3 [4, 10]: 2.0 µg/h
Total ([4]; Film + SPH (sphingosine), n = 2): 1.1 mg
Release Rate Day 1 [4, 11]: 4.0 µg/h
Release Rate Day 2 [4, 11]: 1.8 µg/h
Release Rate Day 3 [4, 11]: 1.8 µg/h
Total ([4]; Film without sphingosine, n = 2): 0.3 mg
total content and delivery rate ([4]; with the addition of sphingosine (SPH) to the matrix): improved total content; also recorded: subsequently higher delivery rate

Compound: heparin
thrombosis on the catheter [9]: sufficient to decrease thrombosis on the catheter
intimal hyperplasia (intimal hyperplasia): inhibited intimal hyperplasia

Further lines, with some results ahead:

water solubility [3]: insoluble in water
Release Rate Day 1 ([4]; Coil, 5% BSA, n = 1): 3.4 µg/h
Release Rate Day 2 ([4]; Coil, 5% BSA, n = 1): 2.3 µg/h
Release Rate Day 1 ([4]; Film, 5% BSA, n = 2): 4.6 µg/h
Release Rate Day 2 ([4]; Film, 5% BSA, n = 2): 3.7 µg/h
initial release rate / release rate [4]: required 5% albumin to promote release
Compound: CCCCCCCCCCCC(=O)Oc1ccc2c(c1)Oc1cc(OC(=O)CCCCCCCCCCC)ccc1C21OC(=O)c2ccccc21 [Fluorescein dilaurate, fluorescein dilaurate]

in vivo release rate [5]: 7.0 µg/min
calculated instantaneous release rate into the bloodstream, initial ([5]; in vivo): 6900 ng/min
calculated instantaneous release rate into the bloodstream, over four hours ([5]; in vivo): 700 ng/min
peak forskolin blood level ([5]; in vivo): 140 ng/mL
immediate forskolin blood level ([5]; in vivo, 0 min): 57 ng/mL
blood level ([5]; in vivo, 24 h): 68 ± 18 ng/mL
concentration in adventitia overlying the stent relative to blood (carotid artery [6]): 360 times
concentration in adventitia overlying the stent relative to contralateral artery (carotid artery [6]): 305 times
concentration in media overlying the stent relative to blood (carotid artery [6]): 450 times
concentration in media overlying the stent relative to contralateral artery (carotid artery [6]): 385 times
forskolin levels in vessel proximal to, overlying and distal to stent (carotid artery [6]): significant levels of forskolin
washout from the vessel wall (carotid artery [6]): rapid
adventitia level in washout experiment, 2 hours (carotid artery [6]; 2 h): 1.7 ng/mg
media level in washout experiment, two hours (carotid artery [6]; 2 h): 1.2 ng FSK/mg tissue
other adjacent tissues level in washout experiment, two hours (carotid artery [6]; 2 h): < 0.6 ng/mg
adventitia level (carotid artery [6]; 24 h): 4.1±1.8 ng FSK/mg tissue
adventitia level in washout experiment, 24 hours (carotid artery [6]; 24 h): 0.1 ng/mg
adventitia tissue to blood ratio (carotid artery [6]; 24 h): 61±18
media level (carotid artery [6]; 24 h): 4.9±1.2 ng/mg tissue
media level in washout experiment, 24 hours (carotid artery [6]; 24 h): 0.2 ng FSK/mg
media tissue to blood ratio (carotid artery [6]; 24 h): 77±22
other adjacent tissues level in washout experiment, 24 hours (carotid artery [6]; 24 h): < 0.1 ng/mg
water solubility [3]: less soluble in aqueous solutions
Release Rate Day 1 ([4]; Stents, PBS, n = 3): 3.8 µg/h
Release Rate Day 2 ([4]; Stents, PBS, n = 3): 3.9 µg/h
Release Rate Day 3 ([4]; Stents, PBS, n = 3): 1.6 µg/h
Total ([4]; Stents, PBS, n = 3): 4.4 mg
in vitro release rate ([4]; in vitro, compared with in vivo): 0.5 µg/min
initial release rate / release rate [4]: slower release rate
Compound: C=C[C@@]1(C)CC(=O)[C@]2(O)[C@@]3(C)[C@@H](O)CCC(C)(C)[C@@H]3[C@H](O)[C@H](OC(C)=O)[C@@]2(C)O1 [Forskolin]
radial and longitudinal diffusion (carotid artery [6]): diffusion gradient in both longitudinal and radial directions away from the stent
carotid artery flow at 1 min (carotid artery [7]; 1 min after stent delivery, p<0.005): 15.9 ± 2.6 mL/min
carotid artery flow at 60 min (carotid artery [7]; 60 min after stent delivery, p<0.0001): 19.6 ± 4.4 mL/min
thrombosis of the stented segment (carotid artery [8]; compared to uncoated and coated stents): prevented thrombosis of the stented segment
effect on TCF and TTO (carotid artery [8]; forskolin impregnated into the polyurethane): remarkably increased the time to cyclic flow (TCF) and time to occlusion (TTO)
Time to Cyclic Flow (TCF) (carotid artery [8]; n = 5, p < 0.0001 compared to coated and uncoated (uncoated 16 ± 13, polymer coated 27 ± 17)): 208 ± 71 min
Time to Occlusion (TTO) (carotid artery [8]; n = 5, uncoated 19 ± 18, polymer coated 54 ± 27): > 240 min
stents exhibiting cyclic carotid blood flow (carotid artery [8]; number of forskolin impregnated stents, n = 5): one
visual inspection of thrombus (carotid artery [8]; uncoated: mixed red and white thrombus, coated: predominately white thrombus): red thrombus only; also recorded: Absence of platelet rich white thrombus

Release Rate Day 1 ([4]; Coil, PBS, n = 3): 37.0 µg/h
Release Rate Day 2 ([4]; Coil, PBS, n = 3): 5.2 µg/h
Total ([4]; Coil, PBS, n = 3): 1.5 mg
initial release rate / release rate [4]: highest initial release rate
Compound: CCN(CC)c1ccc2c(-c3ccccc3C(=O)O)c3ccc(=[N+](CC)CC)cc-3oc2c1 [Rhodamine B]
